We go through 15 molecules from US12084472B2 (Ardelyx, Inc., priority 2015, dated 2024).

Bounds are passed on as bounds.

The assay deals with T1, human TGR5 (Homo sapiens, UniProt Q8TDU6).
T1 construct: expressed in transfected cells; host or cells: HEK293
T1 sequence (Q8TDU6 1-330): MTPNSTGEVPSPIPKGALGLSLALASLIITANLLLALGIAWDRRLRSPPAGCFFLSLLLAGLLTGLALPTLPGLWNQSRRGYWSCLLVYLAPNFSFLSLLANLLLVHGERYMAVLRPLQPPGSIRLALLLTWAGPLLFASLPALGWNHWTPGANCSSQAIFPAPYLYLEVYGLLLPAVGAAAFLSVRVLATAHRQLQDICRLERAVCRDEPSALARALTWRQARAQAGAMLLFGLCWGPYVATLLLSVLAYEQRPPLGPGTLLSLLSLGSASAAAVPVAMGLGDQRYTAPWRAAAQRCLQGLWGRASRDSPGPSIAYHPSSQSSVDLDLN
The assay is described as follows: Cell-based TGR5 assay (cAMP generation, HTRF). The settings on record: HEK293 cells stably transfected with human TGR5; cAMP by HTRF; 30 minutes at 37° C.; read-out: pEC50 Human TGR5 (converted). As for the experimental part: A primary cell-based assay utilized HEK293 cells stably transfected with a gene encoding human TGR5. Cells were treated with candidate TGR5 activators and assessed for increased intercellular levels of cAMP.
TGR5-mediated cAMP generation was measured using a homogeneous time resolved fluorescence (HTRF) detection method (Cisbio). Test compounds were dissolved in DMSO to a final concentration of 10 mM. Serial 3-fold dilutions of the stock solution were made in DMSO, and these solutions were diluted 100-fold into Hanks Balanced Salt Solution supplemented with 10 mM HEPES pH 7.4, 0.003% Tween 20 and 0.5 mM isobutyl methylxanthine. Five microliters of diluted test compounds were added to wells of a black 384 well plate.
Cells grown overnight at 37° C./5% CO2 were harvested and resuspended in Hanks Balanced Salt Solution containing 10 mM HEPES to a concentration of […]. Five microliters (2500 cells) were dispensed into each well of the 384 well plate containing compound dilutions and incubated at 37° C. for 30 minutes. Each compound was tested in duplicate at 12 concentrations ranging from 0.05 nM to 10 μM.
Following incubation with test compounds, cAMP was detected through the successive addition of 5 μL each of cAMP labeled with the modified allophyocyanin dye d2 (cAMP-d2) and cryptate-labeled anti-cAMP in lysis buffer, and reading HTRF per the manufacturer's instructions.
A standard curve was used to convert the raw HTRF data into [cAMP]. The concentration of cAMP was plotted against log [test compound] and the resulting curves were fit to a 3-parameter logistical equation using GraphPad Prism to determine pEC50 (the negative log of the EC50) and the magnitude of the response.
For `O=C(O)CNC(=O)N(CCCCc1cc(Cl)c(COC2(c3cnccc3-c3ccccc3OC3CC3)CC2)cc1Cl)C[C@H](O)[C@@H](O)[C@H](O)[C@H](O)CO` (stereo in doubt) [Compound I-197, 2-[({4-[2,5-dichloro-4-({1-[4-(2-cyclopropoxyphenyl)pyridin-3-yl]cyclopropoxy}methyl)phenyl]butyl}[(2S,3R,4R,5R)-2,3,4,5,6-pentahydroxyhexyl]carbamoyl)amino]acetic acid], the EC50 was 126 to 1000 nM.
Turning to `CN(CCCCc1cc(Cl)c(COC2(c3cnccc3-c3ccccc3OC3CC3)CC2)cc1Cl)C(=O)NC[C@H](O)[C@@H](O)[C@H](O)[C@H](O)CO` (stereo in doubt) [Compound I-204, 1-{4-[2,5-dichloro-4-({1-[4-(2-cyclopropoxyphenyl)pyridin-3-yl]cyclopropoxy}methyl)phenyl]butyl}-1-methyl-3-[(2S,3R,4R,5R)-2,3,4,5,6-pentahydroxyhexyl]urea], the EC50 is under 100 nM.
For `NC(=O)CN(C[C@H](O)[C@@H](O)[C@H](O)[C@H](O)CO)C(=O)CCCCc1cc(Cl)c(COC2(c3cnccc3-c3ccccc3OC3CC3)CC2)cc1Cl` (stereo in doubt) [Compound I-208, N-(carbamoylmethyl)-5-[2,5-dichloro-4-({1-[4-(2-cyclopropoxyphenyl)pyridin-3-yl]cyclopropoxy}methyl)phenyl]-N-[(2S,3R,4R,5R)-2,3,4,5,6-pentahydroxyhexyl]pentanamide], the EC50 is under 100 nM.
With `CCN(CCCCc1cc(Cl)c(COC2(c3cnccc3-c3ccccc3OC3CC3)CC2)cc1Cl)C(=O)[C@@H](O)[C@@H](O)[C@H](O)[C@@H](O)CO` (stereo in doubt) [Compound I-209, (2S,3S,4R,5S)-N-{4-[2,5-dichloro-4-({1-[4-(2-cyclopropoxyphenyl)pyridin-3-yl]cyclopropoxy}methyl)phenyl]butyl}-N-ethyl-2,3,4,5,6-pentahydroxyhexanamide] the figure was under 100 nM; with `CC(C)N(CCCCc1cc(Cl)c(COC2(c3cnccc3-c3ccccc3OC3CC3)CC2)cc1Cl)C(=O)[C@@H](O)[C@@H](O)[C@H](O)[C@@H](O)CO` (stereo in doubt) [Compound I-210, (2S,3S,4R,5S)-N-{4-[2,5-dichloro-4-({1-[4-(2-cyclopropoxyphenyl)pyridin-3-yl]cyclopropoxy}methyl)phenyl]butyl}-2,3,4,5,6-pentahydroxy-N-(propan-2-yl)hexanamide], under 100 nM; with `CNC(=O)CN(C[C@H](O)[C@@H](O)[C@H](O)[C@H](O)CO)C(=O)CCCCc1cc(Cl)c(COC2(c3cnccc3-c3ccccc3OC3CC3)CC2)cc1Cl` (stereo in doubt) [Compound I-219, 5-[2,5-dichloro-4-({1-[4-(2-cyclopropoxyphenyl)pyridin-3-yl]cyclopropoxy}methyl)phenyl]-N-[(methylcarbamoyl)methyl]-N-[(2S,3R,4R,5R)-2,3,4,5,6-pentahydroxyhexyl]pentanamide], under 100 nM.
For the molecule `O=C(NCCCCCc1cc(Cl)c(COC2(c3cnccc3-c3ccccc3OC3CC3)CC2)cc1Cl)NC[C@H](O)[C@@H](O)[C@H](O)[C@H](O)CO` (stereo in doubt) [Compound I-225, 1-{5-[2,5-dichloro-4-({1-[4-(2-cyclopropoxyphenyl)pyridin-3-yl]cyclopropoxy}methyl)phenyl]pentyl}-3-[(2S,3R,4R,5R)-2,3,4,5,6-pentahydroxyhexyl]urea], the EC50 is under 100 nM.
Turning to `CS(=O)(=O)CCN(CCCCCc1cc(Cl)c(COC2(c3cnccc3-c3ccccc3OC3CC3)CC2)cc1Cl)C(=O)[C@@H](O)[C@@H](O)[C@H](O)[C@@H](O)CO` (stereo in doubt) [Compound I-226, (2S,3S,4R,5S)-N-{5-[2,5-dichloro-4-({1-[4-(2-cyclopropoxyphenyl)pyridin-3-yl]cyclopropoxy}methyl)phenyl]pentyl}-2,3,4,5,6-pentahydroxy-N-(2-methanesulfonylethyl)hexanamide], the EC50 was under 100 nM.
With `CCS(=O)(=O)CCN(CCCCCc1cc(Cl)c(COC2(c3cnccc3-c3ccccc3OC3CC3)CC2)cc1Cl)C(=O)[C@@H](O)[C@@H](O)[C@H](O)[C@@H](O)CO` (stereo in doubt) [Compound I-227, (2S,3S,4R,5S)-N-{5-[2,5-dichloro-4-({1-[4-(2-cyclopropoxyphenyl)pyridin-3-yl]cyclopropoxy}methyl)phenyl]pentyl}-N-[2-(ethanesulfonyl)ethyl]-2,3,4,5,6-pentahydroxyhexanamide] the figure was under 100 nM.
With `CN(CCCCCc1cc(Cl)c(COC2(c3cnccc3-c3ccccc3OC3CC3)CC2)cc1Cl)C(=O)[C@@H](O)[C@@H](O)[C@H](O)[C@@H](O)CO` (stereo in doubt) [Compound I-228, (2S,3S,4R,5S)-N-{5-[2,5-dichloro-4-({1-[4-(2-cyclopropoxyphenyl)pyridin-3-yl]cyclopropoxy}methyl)phenyl]pentyl}-2,3,4,5,6-pentahydroxy-N-methylhexanamide] the figure was under 100 nM; with `O=C(CCCCc1ccc(Cl)c(COC2(c3cnccc3-c3ccccc3OC3CC3)CC2)c1)NC[C@H](O)[C@@H](O)[C@H](O)[C@H](O)CO` (stereo in doubt) [Compound I-231, 5-[4-chloro-3-({1-[4-(2-cyclopropoxyphenyl)pyridin-3-yl]cyclopropoxy}methyl)phenyl]-N-[(2S,3R,4R,5R)-2,3,4,5,6-pentahydroxyhexyl]pentanamide], under 100 nM; with `CN(C[C@H](O)[C@@H](O)[C@H](O)[C@H](O)CO)C(=O)CCCCc1ccc(Cl)c(COC2(c3cnccc3-c3ccccc3OC3CC3)CC2)c1` (stereo in doubt) [Compound I-232, 5-[4-chloro-3-({1-[4-(2-cyclopropoxyphenyl)pyridin-3-yl]cyclopropoxy}methyl)phenyl]-N-methyl-N-[(2S,3R,4R,5R)-2,3,4,5,6-pentahydroxyhexyl]pentanamide], under 100 nM.
Turning to `O=C(CCCCc1ccc(Cl)c(CNC2(c3cnccc3-c3ccccc3OC3CC3)CC2)c1)NC[C@H](O)[C@@H](O)[C@H](O)[C@H](O)CO` (stereo in doubt) [Compound I-233, 5-{4-chloro-3-[({1-[4-(2-cyclopropoxyphenyl)pyridin-3-yl]cyclopropyl}amino)methyl]phenyl}-N-[(2S,3R,4R,5R)-2,3,4,5,6-pentahydroxyhexyl]pentanamide], the EC50 was under 100 nM.
With `CN(C[C@H](O)[C@@H](O)[C@H](O)[C@H](O)CO)C(=O)CCCCc1ccc(Cl)c(CNC2(c3cnccc3-c3ccccc3OC3CC3)CC2)c1` (stereo in doubt) [Compound I-234, 5-{4-chloro-3-[({1-[4-(2-cyclopropoxyphenyl)pyridin-3-yl]cyclopropyl}amino)methyl]phenyl}-N-methyl-N-[(2S,3R,4R,5R)-2,3,4,5,6-pentahydroxyhexyl]pentanamide] the figure was under 100 nM.
For `Cc1ccc(CCCCC(=O)NC[C@H](O)[C@@H](O)[C@H](O)[C@H](O)CO)cc1COC1(c2cnccc2-c2ccccc2OC2CC2)CC1` (stereo in doubt) [Compound I-235, 5-[3-({1-[4-(2-cyclopropoxyphenyl)pyridin-3-yl]cyclopropoxy}methyl)-4-methylphenyl]-N-[(2S,3R,4R,5R)-2,3,4,5,6-pentahydroxyhexyl]pentanamide] the value was under 100 nM.
